Reference: patent publication US8372967B2, “Compounds and methods for modulating expression of GCCR” (Isis Pharmaceuticals, Inc., priority 2006, dated 2013)
Strand notation (5' to 3'): a small letter for the sugar, then the base; units joined by * are phosphorothioate-linked, units joined directly phosphodiester-linked; [ ] holds rarer units or linkages, { } end groups; capitals alone tell only the bases. e = 2'-O-(2-methoxyethyl) (MOE); [5mC] = 5-methylcytosine; d = 2'-deoxy (DNA)

Test: Triglyceride, cholesterol and glucose levels, pre-bleed and post-bleed, GCGR study (Table 34)
Format: in vivo, mouse
Set-up: Triglyceride (TRIG) Pre-Bleed / Triglyceride (TRIG) Post-Bleed / Cholesterol (CHOL) Pre-Bleed / Cholesterol (CHOL) Post-Bleed / Glucose Pre-Bleed / Glucose Post-Bleed: unit not given here
Settings: for Cholesterol (CHOL) Pre-Bleed / Triglyceride (TRIG) Pre-Bleed: pre-treatment bleed; for Cholesterol (CHOL) Post-Bleed / Triglyceride (TRIG) Post-Bleed: post-treatment bleed

148364 (antisense eT*eG*e[5mC]*eA*e[5mC]*dT*dT*dT*dG*dT*dG*dG*dT*dA*d[5mC]*e[5mC]*eA*eA*eG*eG) [compound 148364]
Cholesterol (CHOL) Pre-Bleed (6.25 mg/kg group): 86 | Triglyceride (TRIG) Pre-Bleed (6.25 mg/kg group): 86 | Cholesterol (CHOL) Post-Bleed (6.25 mg/kg single i.p.): 89 | Triglyceride (TRIG) Post-Bleed (6.25 mg/kg single i.p.): 162 | Cholesterol (CHOL) Pre-Bleed (12.5 mg/kg group): 85 | Triglyceride (TRIG) Pre-Bleed (12.5 mg/kg group): 106 | Cholesterol (CHOL) Post-Bleed (12.5 mg/kg single i.p.): 89 | Triglyceride (TRIG) Post-Bleed (12.5 mg/kg single i.p.): 179 | Cholesterol (CHOL) Pre-Bleed (25 mg/kg group): 83 | Triglyceride (TRIG) Pre-Bleed (25 mg/kg group): 115 | Cholesterol (CHOL) Post-Bleed (25 mg/kg single i.p.): 96 | Triglyceride (TRIG) Post-Bleed (25 mg/kg single i.p.): 200 | Cholesterol (CHOL) Pre-Bleed (50 mg/kg group): 81 | Triglyceride (TRIG) Pre-Bleed (50 mg/kg group): 110 | Cholesterol (CHOL) Post-Bleed (50 mg/kg single i.p.): 94 | Triglyceride (TRIG) Post-Bleed (50 mg/kg single i.p.): 177
